Experimental data as given in US9113650B2, “Pectic enzyme treated pectin, method of producing the same and application thereof” (NATIONAL PINGTUNG UNIVERSITY OF SCIENCE AND TECHNOLOGY, priority 2011, dated 2015).
Marks after values point to notes of the source that are not given here.

Assays:
Type in all cases: biochemical
[1] = Reducing power (Prussian blue, OD700 nm)
Method: The reducing power of PET-pectin was determined by using the yield of Prussian blue [ferric ferrocyanide; […] In brief, three-valent […] ion (Fe^3+) of red blood salt (potassium […]; […] And then, the light absorbance of Prussian blue at 700 nm was detected to evaluate the reducing power, in which the higher light absorbance was referred to the stronger reducing power. This EXAMPLE could use the conventional method. The PET-pectin was prepared to various concentrations, each 20 μL aliquot of the sample solutions (i.e. pectin solution, PET-pectin solution, BHT solution or Vit. E solution listed in TABLE 2) was added with 50 μL of 0.2 M phosphate buffer (pH 6.6) containing 1% red blood salt [K3Fe(CN)6], incubated in water bath at 50° C. for 20 minutes and added with 50 μL of 10% trichloroacetic acid (TCA) solution. […] The absorbance at 700 nm is measured by the spectrophotometer and listed in the fifth column of TABLE 4, in which the higher light absorbance is referred to the stronger reducing power. Each data of TABLE 4 is referred to the mean of samples in at least or more than triplicate.

[2] = Trolox equivalent antioxidant capacity (TEAC), ABTS
Method: The ABTS could serve as the free radical source. After the mixture reacted in the dark for 12 to 16 hours and generated stably blue-green ABTS, followed by adding 0.25 mL of various concentrations of sample solutions (i.e. pectin solution, PET-pectin solution, BHT solution or Vit. E solution listed in TABLE 2) and reacting for 10 minutes. And then, the light absorbance of those mixtures at 734 nm was detected by the spectrophotometer, and the result was listed in TABLE 4. Each data of TABLE 4 was referred to the mean of samples in at least or more than triplicate. […] E analogue; Sigma, St. Louis, Mo., U.S.A.) standard curve established by using different concentrations of trolox as a reference. The results of TEAC are shown in FIG. 2 and the fourth column of TABLE 4.

[3] = DPPH radical scavenging activity
Method: 4 mL of sample solutions (i.e. pectin solution, PET-pectin solution, BHT solution or Vit. […] And then, the light absorbance of those mixtures at 517 nm was detected by the spectrophotometer, and their DPPH radical scavenging activities (%) were calculated according to the following formula (I), in which the lower light absorbance was referred to the stronger DPPH radical scavenging activity. Each data of TABLE 4 is referred to the mean of samples in triplicate and the result is listed in the third column of TABLE 4. [formula]

| Structure (SMILES) | Reducing Power (OD700 nm) ([1]; concentration 0.01 mg/mL) | Reducing Power (OD700 nm) ([1]; concentration 0.10 mg/mL) | TEAC (mM Trolox) ([2]; concentration 0.01 mg/mL) | TEAC (mM Trolox) ([2]; concentration 0.10 mg/mL) | DPPH radical scavenging activity(%) ([3]; concentration 0.01 mg/mL) | DPPH radical scavenging activity(%) ([3]; concentration 0.10 mg/mL) |
| --- | --- | --- | --- | --- | --- | --- |
| Cc1cc(C(C)(C)C)c(O)c(C(C)(C)C)c1 [Butylated hydroxytoluene (BHT), Butylated hydroxytoluene] | 0.5 ± 0.0^d OD700 nm | 1.7 ± 0.1^b OD700 nm | 0.4 ± 0.0^d mM Trolox | 1.3 ± 0.2^c mM Trolox | 5.2 ± 0.4^e % | 49.2 ± 2.9^c % |
| Cc1c(C)c2c(c(C)c1O)CC[C@@](C)(CCC[C@H](C)CCC[C@H](C)CCCC(C)C)O2 [α-tocopherol (Vit. E), α-tocopherol] | 0.6 ± 0.0^d OD700 nm | 2.5 ± 0.0^a OD700 nm | 0.5 ± 0.0^d mM Trolox | 3.5 ± 0.1^b mM Trolox | 46.1 ± 0.4^d % | 96.8 ± 0.5^a % |
